In the experiment the test system is SYF cells. The experiment is described as follows: Anti-pTyr immunofluorescent staining of tyrosine phosphorylation in SYF cells. The following applies: 3 mM Na3VO4 for 3 h, FIG. 46. In kind it is cell-based, mouse. How it is done:
COS-1, HeLa cells (Japanese Collection of Research Bioresources, Osaka), MCF-7 (provided by H. Saya), A431 (provided by M. N. Fukuda), HEK293 (provided by M. Tagawa), HCT116 (provided by T. Tomonaga), and SYF ([37]; provided by M. Okada and S. Nada) cells were cultured in Iscove's modified DME containing 5% fetal bovine serum (FBS). Cells were transiently transfected with 0.5 μg of plasmid vector using Trans IT Transfection reagent (Mirus) or with 1 μg of plasmid vector using linear polyethylenimine (25 kDa) (Polyscience, Inc.). For growth factor stimulation, COS-1 cells were starved under low serum conditions (0.05% FBS) for 24 h and restimulated with serum (5% FBS). […]
Confocal and Nomarski differential-interference-contrast images were obtained using a Fluoview FV500 confocal laser scanning microscope with a 40×1.00 NA oil and a 100×1.35 NA oil immersion objective (Olympus, Tokyo) and an LSM 510 confocal laser scanning microscope with a 63×1.40 NA oil immersion objective (Zeiss), as described. […] Emission signals were detected between 505 and 525 nm for fluorescein, at more than 560 nm for rhodamine and more than 610 nm for PI [44]. […] Fluorescence intensity plots of anti-histone H3K4me3, anti-ATF-2 pT69/71 and anti-HP1α antibody and PI staining (see FIGS. 18B, 19B, and 20B, respectively) were generated using Fluoview version 4.3 software (Olympus, Tokyo). […]

This passage reports tyrosine phosphorylation results from US10072304B2, “Nuclear localization of Src-family tyrosine kinases is required for growth factor-induced euchromatinization” (National University Corporation Chiba University, priority 2009, dated 2018).

On to `[Na+].[Na+].[Na+].[O]=[V]([O-])([O-])[O-]` [Na3VO4, sodium orthovanadate], for which the tyrosine phosphorylation entry is listed as “increased tyrosine phosphorylation at levels comparable to those in COS-1 cells”.
